This note sets out measurements from article PMC12040169 (PLOS Biology, 2025).

One series in a line: in vitro. The conditions noted are these: human, hela cells, % viability.
For `Cc1cc(C)nc(N/C(=N/C(=O)Cc2ccccc2)N2CCC(C(N)=O)CC2)n1` [CBK263889], the viability at 28.5 h, 10 µM was determined as 107%.
Regarding `CCCc1c(C)nc2c(OC)cccc2c1SCCC(=O)O` [CBK263890], the viability at 28.5 h, 10 µM came to 122%.
Still for that read-out and setting: the result for `COc1cc(/C=C(\C#N)c2nc3ccccc3n2C)cc([N+](=O)[O-])c1O` [CBK263893] reads 91.4%; that for `O=C(O)COc1ccc(/C=N/n2cnnc2)cc1Cl` [CBK263902], 99.3%; that for `CN(CC(=O)O)S(=O)(=O)c1ccc2c(c1)OCCO2` [CBK263904], 95.8%.
Consider `O=C(Cc1ccc(Cl)cc1)NC(=S)Nc1ccccc1O` [CBK263905], for which the viability at 28.5 h, 10 µM was found to be 96.6%.
Turning to `O=C(CSC1=NC(=O)C(Cc2ccccc2)C(=O)N1)Nc1ncccn1` (centres unmarked) [CBK263906], the viability at 28.5 h, 10 µM was found to be 120%.
Turning to `COc1ccc(OCC(=O)Nc2ccc3oc(-c4ccc(OC)c(Br)c4)nc3c2)cc1` [CBK263913], the viability at 28.5 h, 10 µM is 99.4%.
On the same count and under the same terms, the result for `O=C(COC(=O)CN1C(=O)C(=O)c2ccccc21)Nc1cccc2ccccc12` [CBK263915] reads 90.5%; that for `CCC(Sc1nnc2c(n1)[nH]c1ccccc12)C(=O)Nc1sc2c(c1C#N)CCCC2` (centres unmarked) [CBK263917], 80.3%; that for `CCC1C(=O)N=C(SCC(=O)Nc2ncccn2)NC1=O` (centres unmarked) [CBK263920], 94.6%.
Still for that read-out and setting: the result for `COc1ccc2nc(N/C(N)=N/C(=O)COc3ccc(Cl)cc3)nc(C)c2c1` [CBK263924] reads 95%; that for `CC(C(=O)Nc1ccc2oc(-c3ccccc3)nc2c1)(c1ccccc1)c1ccccc1` [CBK263928], 91%; that for `Cc1cccnc1NC(=S)NC(=O)c1ccc([N+](=O)[O-])cc1` [CBK263931], 92.9%.
For the molecule `COc1cc(/C=N/NC(=O)CC#N)ccc1OCc1ccccc1Cl` [CBK263932], the viability at 28.5 h, 10 µM was found to be 84.9%.
Consider `O=C(O)c1cccc(C(=O)c2cccc(C(=O)O)c2)c1` [CBK263933], for which the viability at 28.5 h, 10 µM turned out to be 99.1%.
Take `CC(=O)c1c(C(=O)O)[nH]c(C(=O)O)c1C` [CBK263934]: the viability at 28.5 h, 10 µM was found to be 87.4%.
`Nc1ncnc2c1C(c1ccc(Cl)cc1)c1c(ccc3ccccc13)O2` (centres unmarked) [CBK263938]: the viability at 28.5 h, 10 µM amounted to 101%.
With `O=C(O)c1cccc(Nc2nc(-c3ccccc3)nc3ccccc23)c1` [CBK263941C], the viability at 28.5 h, 10 µM came to 97.6%.
For `N=C1NC(=O)C(CC(=O)Nc2cccc([N+](=O)[O-])c2)S1` (centres unmarked) [CBK263944], the viability at 28.5 h, 10 µM came to 87.9%.
Turning to `CC1(C)CC(NC(=O)c2cc([N+](=O)[O-])ccc2Cl)CC(C)(C)N1` [CBK263948], the viability at 28.5 h, 10 µM was 93.7%.
With `CC(=O)Nc1cc(NC(=O)CCCC(=O)O)ccc1Cl` [CBK263949], the viability at 28.5 h, 10 µM was found to be 73.3%.
With `CC1=NN(c2ccccc2)C(=O)/C1=C1/C(=O)Nc2c(C)cc(Br)cc21` [CBK263950], the viability at 28.5 h, 10 µM came to 92%.
On the same count and under the same terms, the result for `O=C(O)/C=C\C(=O)Nc1cccc(NC(=O)c2cccs2)c1` [CBK263952] reads 85.7%; that for `CC(=O)Nc1ccccc1NC(=O)C(C)Oc1ccc(Cl)cc1Cl` (centres unmarked) [CBK263954], 96.8%; that for `O=C(O)/C=C\C(=O)Nc1ccc(Cl)c(NC(=O)Cc2ccccc2)c1` [CBK263955], 93.7%.
Take `Nc1c(Cl)cc(NC(=O)CCCC(=O)O)cc1Cl` [CBK263957]: the viability at 28.5 h, 10 µM turned out to be 91%.
In the case of `Cc1cccc(OCCOc2ccc(Br)cc2/C=C2\SC(=N)NC2=O)c1` [CBK263958], the viability at 28.5 h, 10 µM turned out to be 102%.
The same measure, in the same setting: as for `O=C(Nc1cc(NC(=O)C2C3C=CC(C3)C2C(=O)O)ccc1Cl)c1cccs1` (centres unmarked) [CBK263959], the figure is 89.6%; as for `Cc1c(C)n(CC(O)CN2C(=O)c3ccccc3S2(=O)=O)c2ccccc12` (centres unmarked) [CBK263960], 88.2%; as for `O=C(O)CNC(=O)/C(=C\c1ccccc1F)NC(=O)c1ccccc1` [CBK263961], 96.5%.
`O=C1CC(NCC2CCCO2)C(=O)N1c1ccc(N2C(=O)CC(NCC3CCCO3)C2=O)cc1` (centres unmarked) [CBK263962]: the viability at 28.5 h, 10 µM is 89.9%.
In the case of `COc1ccc(C(=O)NC(c2ccco2)c2cc(Cl)c3cccnc3c2O)cc1` (centres unmarked) [CBK263964], the viability at 28.5 h, 10 µM turned out to be 91.9%.
In the case of `O=C(O)CNC(=O)/C(=C\c1ccco1)NC(=O)c1ccccc1Cl` [CBK263967], the viability at 28.5 h, 10 µM was 84.8%.
Same read-out and setting: as for `Cc1c(C)n(CC(O)CNCc2ccco2)c2ccccc12` (centres unmarked) [CBK263970G], the figure is 97%.
`COc1cccc(C(=O)NC(c2ccc([N+](=O)[O-])cc2)c2c(O)ccc3ccccc23)c1` (centres unmarked) [CBK263971]: the viability at 28.5 h, 10 µM stood at 84.2%.
As for `O=C(NC(=S)Nc1cccc(-c2nc3cc(Cl)ccc3o2)c1)c1ccccc1Br` [CBK263973], the viability at 28.5 h, 10 µM is 95.8%.
With `Cc1ccc(S(=O)(=O)N(CC(=O)Nc2cccnc2)c2ccc(C)c(C)c2)cc1` [CBK263974], the viability at 28.5 h, 10 µM came out at 75.4%.
For `Cc1ccc(SCCNC(=O)COc2ccc(Cl)cc2Cl)cc1` [CBK263976], the viability at 28.5 h, 10 µM was found to be 86.6%.
Same read-out and setting: the result for `COc1ccc(C)cc1S(=O)(=O)N1CCN(C(c2ccccc2)c2ccccc2)CC1` [CBK263977] reads 91.8%; that for `O=C1OC(c2ccco2)=N/C1=C/c1ccccc1OC(=O)c1ccco1` [CBK263980], 103%; that for `Cc1ccc(S(=O)(=O)N(CC(=O)NCc2ccco2)c2cc(C)cc(C)c2)cc1` [CBK263982], 86.2%.
For `Cc1ccc2cccc(OS(=O)(=O)c3ccc(Cl)c(C)c3Cl)c2n1` [CBK263984], the viability at 28.5 h, 10 µM was 53.7%.
`Cc1ccc(CSCCNC(=O)/C=C/c2ccccc2)cc1` [CBK263985]: the viability at 28.5 h, 10 µM was 95.3%.
Still for that read-out and setting: the result for `O=C(NC(=S)Nc1ccc2[nH]c(=O)[nH]c2c1)c1ccc(F)cc1` [CBK263986] reads 89.3%; that for `O=C(NC(c1cccc([N+](=O)[O-])c1)c1cc(Cl)c2cccnc2c1O)c1cccnc1` (centres unmarked) [CBK263987], 92.5%; that for `CS(=O)(=O)N(Cc1ccc(Cl)cc1)c1ccc(C(=O)Nc2ccccc2C(F)(F)F)cc1` [CBK263988], 101%.
Same read-out and setting: as for `CS(=O)(=O)N(CC(=O)Nc1ccc2c(c1)OCO2)c1ccc(Oc2ccccc2)cc1` [CBK263989], the figure is 91.5%; as for `COc1ccc(C(=O)NC(c2ccc(OC)c(OC)c2)c2cc(Cl)c3cccnc3c2O)cc1` (centres unmarked) [CBK263992], 96.3%.
Take `O=C(COc1ccccc1)NC(/C=C/c1ccccc1)c1cc(Cl)c2cccnc2c1O` (centres unmarked) [CBK263994]: the viability at 28.5 h, 10 µM is 104%.
As to `O=C(Nc1ccc(S(=O)(=O)N2CCCCC2)cc1)c1ccc(CN2CCOCC2)cc1` [CBK264002], the viability at 28.5 h, 10 µM stood at 111%.
On to `CCOC(=O)c1ccc(NC(=S)NC(=O)c2ccc(C)c(C)c2)cc1` [CBK264004], for which the viability at 28.5 h, 10 µM turned out to be 89.2%.
Consider `S=C(NCCC(c1ccccc1)c1ccccc1)NC1CCCCC1` [CBK264007], for which the viability at 28.5 h, 10 µM was 96.3%.
With `COc1ccc(C)cc1N(CC(=O)Nc1ccccc1C(=O)O)S(C)(=O)=O` [CBK264009], the viability at 28.5 h, 10 µM was 94.4%.
Regarding `CC(=O)c1cc(C(=O)Nc2ccc(NC(=O)C(=O)O)cc2)oc1C` [CBK264011], the viability at 28.5 h, 10 µM was determined as 95.4%.
With `O=C(/C=C/c1ccc2c(c1)OCO2)NCCSc1ccccn1` [CBK264012], the viability at 28.5 h, 10 µM stood at 97.7%.
In the case of `O=C(CC1Sc2ccccc2NC1=O)Nc1ccccc1[N+](=O)[O-]` (centres unmarked) [CBK264014], the viability at 28.5 h, 10 µM came to 94.8%.
On to `Cc1oc2c(c1C(=O)NCC(=O)NCC(=O)O)CCCC2` [CBK264015], for which the viability at 28.5 h, 10 µM worked out at 97.6%.
Take `Cc1ccc(Cl)cc1N(CC(=O)Nc1ccccc1C(=O)O)S(C)(=O)=O` [CBK264020]: the viability at 28.5 h, 10 µM came out at 89.5%.
Turning to `COc1ccc(Br)cc1S(=O)(=O)NCc1cccnc1` [CBK264023], the viability at 28.5 h, 10 µM is 90.7%.
`CCOc1ccc(OCC)c(S(=O)(=O)n2nc(C)cc2C)c1` [CBK264024]: the viability at 28.5 h, 10 µM came out at 94.6%.
For `COc1ccc(CSCC(N)C(=O)O)cc1Br` (centres unmarked) [CBK264026], the viability at 28.5 h, 10 µM turned out to be 94%.
With `CSCCC(NC(=O)c1c(C)oc2c1CCCC2)C(=O)O` (centres unmarked) [CBK264029], the viability at 28.5 h, 10 µM is 82%.
Regarding `Cc1ccc(N(CC(=O)Nc2cc(Cl)ccc2C)S(C)(=O)=O)cc1` [CBK264030], the viability at 28.5 h, 10 µM was found to be 92.9%.
Still for that read-out and setting: as for `COc1ccc(N(CC(=O)Nc2cccnc2)S(=O)(=O)c2ccc(C)cc2)cc1` [CBK264033], the figure is 99.6%.
For the molecule `Cc1ccc(S(=O)(=O)N(CC(=O)Nc2ccccc2C(=O)O)c2ccccc2)cc1` [CBK264034], the viability at 28.5 h, 10 µM amounted to 94.6%.
The same measure, in the same setting: as for `COc1ccc(C(=O)NC(c2ccccc2Cl)c2cc(Cl)c3cccnc3c2O)cc1` (centres unmarked) [CBK264036], the figure is 88%; as for `COc1ccc(C(=O)NC(=S)Nc2ccc(O)c(-c3nc4cc(C)c(C)cc4o3)c2)cc1[N+](=O)[O-]` [CBK264039], 111%.
The same measure, in the same setting: as for `CC(=O)N/C(=C/c1ccccc1)C(=O)NCCC(=O)O` [CBK264046], the figure is 87.2%.
For the molecule `COc1cccc(C(=O)NC(c2ccc(OC)c(OC)c2)c2cc(Cl)c3cccnc3c2O)c1` (centres unmarked) [CBK264048], the viability at 28.5 h, 10 µM came to 95.4%.
Take `COc1ccc(Br)cc1S(=O)(=O)NCCCN1CCOCC1` [CBK264050]: the viability at 28.5 h, 10 µM is 103%.
With `CC(C)(C)c1cc(C(=O)O)c(CN2CCOCC2)o1` [CBK264052], the viability at 28.5 h, 10 µM amounted to 88.7%.
As to `Cc1ccccc1C(=O)Nc1cccc(-c2nnc(SCC(=O)c3ccc(Cl)cc3)n2C)c1` [CBK264053], the viability at 28.5 h, 10 µM is 89.3%.

The same series, now with this note: human, hela cells, % viability, bulk resorufin, single well.
Take `Cc1ccc(N2C(=O)NC(=O)/C(=C\c3ccc(OCC(=O)O)c(Br)c3)C2=O)cc1C` [CBK263899]: the viability at 28.5 h, 10 µM was determined as 84%.
Take `Cc1cc(C)cc(N2C(=O)/C(=C/c3ccc(OC(C)C(=O)O)cc3)C(=O)NC2=S)c1` (centres unmarked) [CBK264016]: the viability at 28.5 h, 10 µM was 93.9%.
Consider `C=CCc1cc(/C=C2\C(=O)NC(=O)N(c3ccc4c(c3)OCO4)C2=O)cc(OC)c1OCC(=O)O` [CBK264025], for which the viability at 28.5 h, 10 µM stood at 98.5%.
Same read-out and setting: as for `Cc1ccc(N2C(=O)/C(=C/c3ccc(OCC(=O)O)c(Cl)c3)C(=O)NC2=S)c(C)c1` [CBK264043], the figure is 109%.

One may read the viability as a read-out of living cells in per cent, often relative to untreated cells.
